Source: US7268212B2, “Ligand of G protein-coupled receptor protein and DNA thereof” (Takeda Pharmaceutical Company Limited, priority 2001, dated 2007)
No end group written: not given here.

Biological target: T1, bovine GPR7 (Bos taurus, UniProt Q8MJV3)
T1 construct: expressed in transfected cells; host or cells: CHO cells
T1 sequence (Q8MJV3 1-331): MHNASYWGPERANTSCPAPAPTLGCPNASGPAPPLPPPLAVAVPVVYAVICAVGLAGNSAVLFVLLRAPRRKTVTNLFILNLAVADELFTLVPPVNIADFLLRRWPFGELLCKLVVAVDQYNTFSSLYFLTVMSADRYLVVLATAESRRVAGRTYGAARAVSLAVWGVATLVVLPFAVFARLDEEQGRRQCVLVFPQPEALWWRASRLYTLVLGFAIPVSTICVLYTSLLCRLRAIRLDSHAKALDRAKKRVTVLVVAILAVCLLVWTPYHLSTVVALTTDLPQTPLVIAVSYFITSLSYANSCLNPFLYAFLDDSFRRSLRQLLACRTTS
Test: Intracellular cAMP production suppression activity on bovine GPR7-expressed CHO cells
Format: cell-based
Conditions: forskolin-promoted cAMP production; receptor-expressed CHO cells; read-out: IC50 (nM) bovine GPR7, cAMP production inhibition
Protocol: The intracellular cAMP production suppression activity of peptides associated with various GPR7 ligands on CHO cells, in which human GPR7, bovine GPR8, human GPR8, human GPR8, bovine GPR8 and rat GPR7 were expressed, was examined. […] An assay buffer was prepared by adding 20 mM HEPES, pH7.4, 0.1% bovine serum albumin and 0.2 mM 3-isobutyl-1-methylxanthine (Sigma) to Hanks' Balanced Salt Solution (Gibco BRL). The plate incubated overnight was first washed twice with 150 μl of the assay buffer, and then exchanged with 150 μl of the assay buffer, followed by incubation for 30 minutes at 37° C. in 100% air. By adding 4 μM forskolin to the assay buffer, a buffer for sample dilution was prepared and the stock solution (10^−2 M of 10^−3 M) was diluted with the buffer thus obtained to prepare sample solutions in final concentrations of 10^−6 M, 10^−7 M, 10^−8 M, 10^−9 M and 10^−10 M. The plate incubated with the assay buffer for 30 minutes was taken out. After washing twice with the assay buffer, 50 μl of the assay buffer and then 50 μl of the sample solution were added thereto. Each sample was assayed in triplet. […] A difference between the maximum cAMP level and the cAMP level when each sample was added was calculated and the percentage of cAMP production level promoted by forskolin was worked out, which was made the cAMP production inhibition rate.

IC50: 1.2 nM
Sequence: WYKPTAGQGYYSVGRAAGLLSGFHRSPYA [Trp1-bovine GPR7L(29)]
